These results are taken from patent US5045543A, “5-amino or substituted amino 1,2,3-triazoles useful as antimetastatic agents” (Merck & Co., Inc., priority 1989, dated 1991).

Converted amounts (≈) assume the structure as drawn.

Series [1] deals with PAPp26 Murine Keratinocytes. The settings on record: proliferation assay.
Experimental: In these experiments Murine keratinocyte transformed cell line PAPp26 was cultured in Dulbecco's modified Eagle's medium with 10% fetal calf serum at 37° C., 5% CO2. Each well of a 96 well plate was seeded with 2000 cells in 200 μl of each drug dilution in duplicate. A plate was stopped and fixed for each time point, stained with Giemsa and then read in a Titertek plate reader at 650 nm, and the absorbances were calibrated with known cell numbers on control plates.
The subject of series [2] is pig skin epidermal basal cells (keratinocytes). Put plainly: UV induced hyperproliferation in pig skin in vivo (topical antiproliferative activity). The method, then: The topical antiproliferative activities, along with in vitro antiproliferative activities against human keratinocytes and fibroblasts, provide the biological data in support of the claimed utility:
In one experiment, a 20 kg pig was sedated and multiple areas of clipped skin were exposed to uv radiation sufficient to provoke a moderate hyperproliferative response within several days of exposure. On days 0, 1, 2 and 3 replicate irradiated sites were treated topically with Compound A in several vehicles or solvents. Topical preparations included a 2% drug in Gel #1, a combination of isopropyl myristate:Crodamol:ethanol, 1:1:2, or DMSO. The hyperproliferative response of the skin to uv was assessed on day 4 by injecting ^3 H-thymidine intradermally, and, 1 hour later, removing the sites by punch biopsy and processing the samples for autoradiography. Such autoradiographs indicate the number of epidermal cells in S phase synthesizing DNA and this is a common tool used by dermatologists to assess inhibition of proliferation in vivo. A single injection of methotrexate, 4 hours prior to ^3 H-thymidine injection was used as a positive control for inhibition of DNA synthesis. A labelling index, L.I., which is the percent of the total number of epidermal basal cells (keratinocytes) counted showing label incorporation. Four days after exposure to uv, the L.I. of pig skin increased from 7.6% to 20.8% (normal human skin ca. 2%, psoriatic lesions ca. 25%, for comparison).

Another series deals with psoriasis. To be noted: cited from earlier work; for side effects in psoriasis treatment: in vivo; for efficacy in psoriasis: mycophenolic acid given orally; for clearing of psoriatic lesions: used experimentally.

Compound `NC(=O)c1nnn(Cc2cc(Cl)c(C(=O)c3ccc(Cl)cc3)c(Cl)c2)c1N` [(B)] came in with an ED50 PAPp26 in series [1] of 2 µg/mL (≈ 4.71 µM).
In turn, `NC(=O)c1nnn(Cc2ccc(Sc3ccc(Cl)cc3)c(Cl)c2)c1N` [(C)] returned an ED50 PAPp26 in series [1] of 1 to 2 µg/mL (≈ 2.54 to 5.07 µM).
In series [1], `NC(=O)c1nnn(Cc2ccc(Sc3ccc(Cl)cc3)c(C(F)(F)F)c2)c1N` [(D)] yielded an ED50 PAPp26 of 1 to 2 µg/mL (≈ 2.34 to 4.67 µM).
`Cc1cc(Cn2nnc(C(N)=O)c2N)cc(Cl)c1C(=O)c1ccc(C(F)(F)F)cc1` [(E)] gave an ED50 PAPp26 in series [1] of 2 µg/mL (≈ 4.57 µM).
Still for that read-out and setting: the figure for `N#Cc1ccc(C(=O)c2c(Cl)cc(Cn3nnc(C(N)=O)c3N)cc2Cl)cc1` [(F)] is 2 µg/mL (≈ 4.82 µM).
On the same count and under the same terms, the figure for `NC(=O)c1nnn(Cc2cc(Cl)c(C(=O)c3ccc(Cl)cc3)c(Br)c2)c1N` [(G)] is 2 µg/mL (≈ 4.26 µM); for `NC(=O)c1nnn(Cc2cc(Cl)c(Oc3ccc(Br)cc3)c(Cl)c2)c1N` [(H)] it is 1 to 2 µg/mL (≈ 2.19 to 4.38 µM).
Same read-out and setting: next, `NC(=O)c1nnn(Cc2cc(Cl)c(C(=O)c3ccc(Br)cc3)c(Cl)c2)c1N` [(J)]: 1 to 2 µg/mL (≈ 2.13 to 4.26 µM); `NC(=O)c1nnn(Cc2cc(Cl)c(Oc3ccc([N+](=O)[O-])cc3)c(Cl)c2)c1N` [(K)]: 2 µg/mL (≈ 4.73 µM).
Take `Cc1cc(Cn2nnc(C(N)=O)c2N)cc(Cl)c1Oc1ccc(Cl)cc1` [(L)]: the ED50 PAPp26 in series [1] is 2 µg/mL (≈ 5.1 µM).
In the case of `CN(Cc1cnc2nc(N)nc(N)c2n1)c1ccc(C(=O)N[C@@H](CCC(=O)O)C(=O)O)cc1` [Methotrexate, methotrexate, reference compound], the “UV induced hyperproliferation, % Inhibition” value in series [2] (i.d. injection) turned out to be 93%. Moreover, the “Labelled Cells” value in series [2] (i.d., single injection 4 hours prior to 3H-thymidine, of 1175 basal cells counted) is reported as 100. Also, the “LI (labelling index)” value in series [2] (i.d., uv exposed Gel #1 control 20.8, normal 7.6) is 8.5%. Further, in the series on psoriasis, the “side effects in psoriasis treatment” value is recorded as “unacceptable side effects due to toxicity” and the efficacy in psoriasis entry is given as “effective in treating the disease”.
With `COc1c(C)c2c(c(O)c1C/C=C(\C)CCC(=O)O)C(=O)OC2` [Mycophenolic acid], in the series on psoriasis, the “side effects in psoriasis treatment” value is “unacceptable side effects”, the efficacy in psoriasis entry is reported as “controls psoriasis by causing remission when given orally” and the “clearing of psoriatic lesions” value is reported as “success in clearing lesions”.
With `O=C(O)C[C@H](NC(=O)CP(=O)(O)O)C(=O)O` [N-phosphonacetyl-L-aspartate], in the series on psoriasis, the “side effects in psoriasis treatment” value was “unacceptable side effects due to toxicity” and the efficacy in psoriasis entry is on record as “effective in treating the disease”.
Consider `O=c1[nH]cc(F)c(=O)[nH]1` [fluorouracil], for which, in the series on psoriasis, the “side effects in psoriasis treatment” value was “unacceptable side effects due to toxicity” and the efficacy in psoriasis result is recorded as “effective in treating the disease”.
As for `Nc1nc2nc[nH]c2c(=S)[nH]1` [thioguanine], in the series with psoriasis, the “side effects in psoriasis treatment” value is reported as “unacceptable side effects due to toxicity”, the efficacy in psoriasis result is “effective in treating the disease” and the “clearing of psoriatic lesions” value was “success in clearing lesions”.
